According to the OligoGym collection:
After the bases stand the sugars from the 5' end (letter, count) and the backbone: PS all phosphorothioate, else s phosphorothioate and o phosphodiester by linkage. Methylation of C is not given here. l = locked nucleic acid (LNA); d = 2'-deoxy (DNA)

Biological target: SNHG14
Details: ASO, Human Neuronal Cell

Sequence	target mRNA inhibition (7.5 µM) [%]	target mRNA inhibition (0.2 µM) [%]	target mRNA inhibition (1 µM) [%]	target mRNA inhibition (5 µM) [%]
ATCTCATGACCACCTAA (sugars ldlddddddddddldll, PS)	61			
ATCTTCAAGAATTCTC (sugars l3 d10 l3, PS)		44	48	
ATCTTTCCATTTATTTCCA (sugars l1 d1 l1 d14 l2, PS)	41			
ATCTTTCCATTTATTTCCA (sugars lddddldddddddddldll, PS)	31			
ATCTTTGACATTCCATC (sugars l2 d11 l4, PS)		54	61	
ATGAAACTATTACTCC (sugars l2 d10 l4, PS)		18	35	
ATTCAAAGCACACCACC (sugars l2 d12 l3, PS)		25	32	
ATTCAGTTACCAACTA (sugars l3 d10 l3, PS)		39	38	
ATTCTCAATTGCACTT (sugars l4 d10 l2, PS)		49	58	
ATTGATTCAATTCCCTT (sugars l2 d11 l4, PS)		62	69	
ATTGATTCAATTCCCTT (sugars ldddldddddddldlll, PS)	62			
ATTGATTCAATTCCCTT (sugars ldlddddddddllldll, PS)	47			
ATTGATTCAATTCCCTT (sugars ldllddddddddlddll, PS)	74			
ATTTACACTTAATTATACTT (sugars ldddldldddddddllllll, PS)	46			
ATTTACACTTAATTATACTT (sugars llddlldddddddlllddll, PS)	36			
ATTTACACTTAATTATACTT (sugars llldlddddddddlldllll, PS)	27			
ATTTACACTTAATTATACTT (sugars llllddlddddddldddlll, PS)	21			
ATTTATTTCCATTTATTTTC (sugars ldddlldddddddldddlll, PS)	64			
ATTTATTTCCATTTATTTTC (sugars ldlddlddddddddllldll, PS)	58			
ATTTATTTCCATTTATTTTC (sugars ldllddddddddddlddlll, PS)	60			
ATTTTTTTCTTACTATCTTC (sugars lldlddddddddddlddlll, PS)	57			
CAAAGATCATTCTCAAC (sugars l2 d1 l1 d7 l6, PS)	26			
CAAAGATCATTCTCAAC (sugars l2 d2 l1 d6 l6, PS)	18			

Sequence	target mRNA inhibition (7.5 µM) [%]	target mRNA inhibition (0.2 µM) [%]	target mRNA inhibition (1 µM) [%]	target mRNA inhibition (5 µM) [%]
CAAAGATCATTCTCAAC (sugars l3 d8 l6, PS)	53			
CAAAGATCATTCTCAACA (sugars l2 d1 l1 d9 l5, PS)	69			
CAACATTATTAACCACCTT (sugars l3 d11 l2 d1 l2, PS)	51			
CAACATTATTAACCACCTT (sugars ldldddddddddddldlll, PS)	52			
CAACATTATTAACCACCTT (sugars ldlldddddddddddldll, PS)	58			
CAACATTATTAACCACCTT (sugars lldllddddddddddldll, PS)	53			
CAAGTTTCCTATATTC (sugars l4 d10 l2, PS)		62	64	
CACACCTATTATATAAT (sugars l4 d11 l2, PS)		2	18	
CACATCTTGTATACAA (sugars l3 d10 l3, PS)		52	61	
CACCAGTATTTCTTCTT (sugars l4 d11 l2, PS)		31	27	
CACCTGATAACAGACCCT (sugars l3 d12 l3, PS)		24	16	-10
CACTAGTACTCTTATT (sugars l4 d10 l2, PS)		43	38	
CACTTAGAATATCCCT (sugars l2 d10 l4, PS)		43	35	
CAGATAACTCTAAACC (sugars l4 d10 l2, PS)		22	16	
CAGCTTTTAACCAGAGTG (sugars l3 d13 l2, PS)	76			
CAGGCAGATAACCTCCAA (sugars l3 d12 l3, PS)		12	20	18
CATTTACATTATTATTTAAC (sugars l2 d14 l4, PS)		1	-3	
CCAAGATAATCATCAT (sugars l3 d10 l3, PS)		41	42	
CCATTCTATCTGCCAAA (sugars l2 d11 l4, PS)		54	69	
CCATTTATTTCCATTTATT (sugars lddlllddddddldddlll, PS)	54			
CCATTTATTTCCATTTATT (sugars ldldlddddddddldldll, PS)	55			
CCATTTATTTCCATTTATT (sugars llddlddddddddldddll, PS)	61			
